Results on two compounds are retold here after US4695576A, “L-N-n-propylpipecolic acid-2,6-xylidide” (priority 1985, dated 1987).

Usually LD50 stands for the dose at which mortality reaches 50%. A high value points to a less toxic substance. For orientation: inhibition means the share of the control response that was lost under treatment.

Each structure is given as a SMILES string. Like-named read-outs stand apart in the source and are kept apart here. Some results are limits rather than exact numbers.

A short description of series [1]: in vivo. The settings on record: mouse, iv, 50% mortality of mice, racemate.
For series [2], the system named is pigs. Nature of the series: Intracoronary administration in anesthetized pigs. The format is in vivo, pig. How it is done:
Eight pigs weighing around 50 kg were anesthetized with a continuous infusion of pentobarbital at 600 mg/h. Ventilation was established via a tracheotomy with 30% oxygen in nitrogen and normoventilation by a Siemens-Elema Servoventilator 900B. The following catheters were inserted after cutdown: Left ventricular, aortic, pulmonary arterial, great cardiac venous, left anterior descending coronary, arterial and central venous. […] The corresponding doses for bupivaciane were 0.25, 0.5, 1, 2 and 4 mg and for LEA 0.33, 0.66, 1.33, 2.66 and 5.33 mg. The injection rate was adjusted according to the preinjection coronary blood flow. Each series of drug injections was preceded by a placebo infusion. Total hemodynamic and electrocardiographic recovery was allowed between doses and there was a one hour resting period between drugs.
Central pressures, left ventricular dP/dT and a complete chest lead ECG were recorded continuously. Cardiac output and great cardiac venous blood flow were determined before and directly after each dose of the local anesthetic agent.

Series [3] concerns tissue. Nature of the series: Tissue toxicity limits (Trypan blue test, threshold of tissue irritancy). It is filed as in vivo. The settings on record: Trypan blue test; approximate threshold values of tissue irritancy; racemate. An excerpt:
The toxicity of the homologous series of N-alkylpipecolic acid-2,6-xylidides increases step wise and quickly with the lengthening of the alkyl chain. This is manifest from Table 1 set forth below, which compares racemic mixtures of alkyl homologues having from 1 to 5 carbon atoms.
*Trypan blue test; Hoppe et al. (1950), 39, 147-151 "Use of Trypan Blue
and Rabbit Eye Tests For Irritation", J. Amer. Pharm. Assoc. (Scient.
Ed.), the values are approximate threshold values of tissue irritancy.

The subject of series [4] is skin. Put plainly: Skin temperature measurements within intracutaneous wheals. The settings on record: Conc. 0.25%, HCl-salt, 10 minutes after injection. It is filed as in vivo, man. How it is done:
The mean value of 6 wheals for each substance forms the basis for the values. The control values, however, represent the mean value obtained from 4 different sites measured outside the wheals 90 degrees apart and 2 centimeters from the wheal's center.
In the temperature measurements, an Oriel temperature apparatus* has been used. This is battery driven and is connected to a detector (diameter, 2.5 mm) and has an accuracy of ±0.1° C. The temperature of the skin is measured by pressing the detector against the skin with a pressure of 100 grams. It is retained against the skin until a constant temperature is obtained.
In Table 4, T1 is the measurement obtained at the center of the wheal, and T2 is the average of four measurements taken 90 degrees apart outside of the wheal and within 2 centimeters of the wheal's center.

For series [5], the system named is ulnar volar nerves. Nature of the series: Finger blockade, digital nerve blocks in man. It is filed as in vivo. The settings on record: Concentration 0.25%. Here is the method:
^2 Digital nerve blocks in man. The test solutions were injected to
block the ulnar volar nerves on the 2nd and 4th fingers of the same
volunteers who had participated in the intracutaneous wheal tests
described above. The tests were carried out in a double blind fashion in
rotating system, so that each solution was used with equal frequency on
each of the blocked fingers. A total of for injections 1.0 ml per
injection, was done in each subject. One week later the procedure was
repeated in the same subjects using the remaining test solutions. This
method has been described by Dhuner et al. (1972) (for citation see Table
2 footnote 1). To measure the efficacy and duration of the blocks, the
individual fingers were pricked rapidly 10 times with a needle algesimete
and the number of painful pricks noted. Each finger was tested every five
minutes until complete recovery. The time of complete anesthesia has been
called "duration of anesthesia".
*i.e. the time from injection to complete analgesia?
**i.e. the number of successful anesthesias of total number of
anesthesias performed (no anesthesia is possible if the ulnar volar nerve
are not contacted by the anesthetic).

For series [6], the system named is guinea pig papillary muscle. The settings on record: Block and Covino, 1981, Courtney, 1984, Kotelko et al.; cited from earlier work.
The test system of series [7] is peripheral nerve endings of the epidermis. Nature of the series: Intracutaneous wheals, infiltration anesthesia on forearms of man. The format is in vivo. The settings on record: Conc. 0.25%; 12 healthy volunteers, pinprick. An excerpt:
By use of intracutaneous wheals it is possible to measure the analgesic effect of an anesthetic on the peripheral nerve endings of the epidermis.
This technique gives information about:
(1) The duration of anesthesia.
^1 Infiltration anesthesia on forearms of man. The test solutions wer
injected intracutaneously on the dorsum of the forearms of 12 healthy
volunteers, 20-25 years old. Three wheals were made on each arm in a
rotating system in a doublebind fashion. The local anesthetic effect was
tested using a pinprick technique. The "duration of anesthesia" was
defined as the time during which none out of six pinpricks into the wheal
was felt. The method has been described by Dhuner et al. (1972). […]

For series [8], the target named is T1, guinea-pig papillary muscle sodium channels (Cavia porcellus, UniProt H0V4Z8).
T1 construct: Vmax of action potential as measure of sodium current
Put plainly: Action on guinea-pig papillary muscle sodium channels (Vmax, recovery from block). It is filed as cell-based. The text has this:
Depression of cardiac conduction appears to be one of the primary mechanisms underlying local anesthetic cardiotoxicity. Depression of conduction by local anesthetics in both nerve and cardiac tissue results from a block of sodium channels. Furthermore, the degree of sodium channel block by local anesthetics is dependent upon the state of the sodium channel. […] Consequently, a block of sodium channels develops during the upstroke and plateau of the action potential and dissipates during the diastolic interval between beats. Since the effect of a local anesthetic is both state and time dependent, changes in both heart rate and diastolic membrane potential may alter drug action substantially.
(§1) Guinea pig papillary tests were carried out according to the recommendation of the "Report of the Subcommittee on Cardiotoxicity of Local Anesthetics" (Leroy D. Vandam, M.D., chairman). Guinea pig papillary muscle excised from the right ventricle were mounted in a single sucrose gap apparatus (Arlock & Katzune, 1985). Solutions maintained at 37° C.±0.5° continuously perfused the gap compartments. The rear chamber contained isotonic potassium chloride solution. The drugs were added to a Tris-Tyrode solution passing the tip of the muscle. The Tris-Tyrode solution contained (mM): NaCl, 145; KCl, 4; CaCl2, 1.2; MgCl2, 1.05; glucose, 5.5 Tris maleate, 5. It was adjusted to pH 7.4 with trismaleate and HCl before use and gassed with 100% oxygen. Isotonic sucrose solution isolated the rear from the tip to enable current- and voltage-clamping.
The muscles were depolarized with long current pulses (1500 msec). These current steps can induce automaticity or DIA (depolarization induced automaticity). The steps were adjusted so the preparations were depolarized to from -50 to -30 mV since that is in that range that calcium current conductance is initiated.
The results represent the mean from representative experiments. In the absence of drug, Vmax (maximum upstroke velocity of the action potential) recovers from inactivation with an exponential time constant of less that 30 msec at -90 mV (Gettes and Reuter, 1974). […] The time constant of this recovery process is different for channels blocked by different drugs.

Series [9] deals with conscious rats. Nature of the series: Heart-toxicity in conscious rats (ECG). It is filed as in vivo, Male Sprague Dawley rats. The settings on record: rat, in vivo. How it is done:
Male Sprague Dawley rats weighing 290-360 grams were prepared with intravenous catheters under local anesthesia using prilocaine (Citanest*) one hour before experiments. Rapid intravenous bolus injections over 5.0 seconds were given to groups of 8 rats, with a single injection to each animal. […] The ECG was recorded on a Mingograf 34. Convulsions were recorded manually with an electronic marker on one channel of the Mingograf. Only "primary" arrhythmias occurring during the first 60 seconds have been analyzed to avoid confusion with late arrhythmias occurring secondary to respiratory arrest or cardiovascular collapse.

In series [10] the test system is guinea pig papillary muscle. Nature of the series: Force of contraction of guinea pig papillary muscle. The format is cell-based. Here is the method:
(§2) In order to initiate an investigation without the necessity to involve voltage-clamp of the calcium current, the preparations were subject to long depolarizing induced automaticity. If the cells are depolarized from about -50 to about -30 mV the automaticity is dependent on a transmembrane calcium current.
as §1, with “Guinea pig papillary muscle excised from the right ventricle were mounted in a single sucrose gap apparatus (Arlock & Katzune, 1985).” left out, “The Tris-Tyrode solution contained (mM): NaCl, 145; KCl, 4; CaCl2, 1.2; MgCl2, 1.05; glucose, 5.5 Tris maleate, 5.” left out
(§3) The force of contraction was measured with a strain gauge transducer before and after the addition of the test compounds to the medium. The percent reduction in maximum force of contraction from the control was calculated.

Test in series [11]: as above
The format is cell-based. The settings on record: guinea pig, papillary muscle. Here is the method:
as §2
as §1, with “Guinea pig papillary muscle excised from the right ventricle were mounted in a single sucrose gap apparatus (Arlock & Katzune, 1985).” left out, “The Tris-Tyrode solution contained (mM): NaCl, 145; KCl, 4; CaCl2, 1.2; MgCl2, 1.05; glucose, 5.5 Tris maleate, 5.” left out
as §3

The subject of series [12] is tissue. The settings on record: in vivo, cited from earlier work.
The conditions of series [13]: listed as 5; cited from earlier work.

With `CCCCN1CCCCC1C(=O)Nc1c(C)cccc1C` (racemic) [4 R, N--n-butylpipecolic acid-2,6-xylidide], the LD50 in [1] is 7.8 mg/kg. Further, the “death in ventricular fibrillation” value in series [2] (4 mg intracoronary, eight pigs) is “Two animals died in ventricular fibrillation”. Further, in series [2] (4 mg intracoronary, listed as bupivacaine), the “ventricular fibrillation (VF), time after injection” value is not above 33 s. Also, the sudden cardiac collapse entry in series [2] (intracoronary) is given as “occurred”. Moreover, the “Tissue toxicity limits in %” value in series [3] stood at 0.75%. In addition, the “Temperature Difference (T1 wheal vs T2 controls)” value in series [4] is -0.6 °C. Also, in series [4] (mean of 6 wheals), the “T1 Intracutaneous Wheal temperature” value was 31.5 °C. In addition, in series [5], the “Analgesia-duration, finger blockade” value was found to be 388 ± 50 min and the “Frequency (successful anesthesias of total performed)” value is given as 15/20. In [5] (time from injection to complete analgesia), the “Time of onset, finger blockade” value turned out to be 9 ± 2 min. Besides, in series [6], the negative inotropic effect entry is given as “potent negative inotropic effect”. In addition, the “Analgesia-duration, intracutaneous wheals” value in [7] was 118 ± 15 min. In series [8], the “affinity for the activated and inactivated channels” value is reported as “very high affinity”. Also, the “recovery to 90% of drug-blocked channels” value in [8] (-90 mV) worked out at 3561 ms. In addition, in series [8] (equimolar concentrations), the “potency on cardiac sodium channels” value is recorded as “highest”. Besides, the “recovery from block” value in series [8] (especially at hyperpolarized levels (-100--120 mV)) is listed as “very slow”. Moreover, in series [9], the “potency to induce atrioventricular conduction disturbances” value was “most potent”. In addition, the “effect on force of contraction/contractility” value in [10] is listed as “pronounced depressant action”. In series [11], this compound yielded an inhibition at 5 µM of 45.1% and an inhibition at 10 µM of 41.7%.

For the compound `CCCCCN1CCCCC1C(=O)Nc1c(C)cccc1C` (centres unmarked) [5 R, N--n-pentylpipecolic acid-2,6-xylidide], the tissue irritation entry is “irritating” in [12] and “too irritating against tissue” in series [12] (listed as 5). For the same compound, the solubility in water entry in [13] is given as “slightly soluble”.
